A short description of experiment [1]: In-vitro investigation of DHA and DHA/glucuronolactone (Liquidskin model, L-a-b values). The settings on record: 37° C., pH 7.
In experiment [2] the test system is explants from the stomach tissue of a pale-skinned person (type). Briefly: Ex-vivo study: chromametric colour measurement of skin explants. Also on record: species or system human; key: change in the L*a*b* a value from D0. The settings on record: D5 vs D0; single explants; listed as P2.
For experiment [3], the system named is B16V mouse melanoma cells. The experiment in a line: B16 V mouse melanoma cell test (melanin concentration). The class given is cell-based. The settings on record: for Melanin concentration %: relative to blank DMSO + α-MSH = 100%. As to the method: Description of the performance of the B16 V mouse melanoma cell test:
B16V mouse melanoma cells (manufacturer: DSMZ; Article No,: ACC370) in RPMI medium (Invitrogen, Article No.: 31870), to which 10% of FBS (foetal bovine serum, Invitrogen, Article No: 10499044), 2 mM L-glutamine (Invitrogen, Article No: 25030) and 1 mM sodium pyruvate (Invitrogen, Article No:11360) had additionally been added (modified RPMI medium), are transferred into a culture bottle and incubated at 37° C. and 5% CO2 for 72 h. The medium is separated off, and the cells are washed with 10 ml of D-PBS (Invitrogen, Article No. 14190) and subsequently filtered off with suction. 1 ml of HyQtase cell detachment solution (Hyclone, Article No. SV30030.01) is added to the cells. The bottle is swirled a number of times, and the HyQtase cell detachment solution is subsequently removed by suction. The cells are then incubated in the incubator at 37° C. and 5% CO2 for 5 min. The cells are taken up in the modified RPMI medium (Invitrogen, Article No.: 31870), and the cell count is determined. To this end, the cells are stained with Tryptan Blue and counted in a Neubauer chamber. The cells are subsequently sown out again in the modified RPMI medium in a defined cell count of 80,000 cells per well (6-well clear plate, TCT, PS (Nunc)).
The plate is subsequently incubated at 37° C. and 5% CO2 for 24 h, the medium is then removed. […]
After the final incubation period, the medium is removed by suction, and the cells are washed with 1000 μl of D-PBS (Invitrogen, Article No. 14190). […] The cell count is subsequently determined. To this end, the cells are stained with Tryptan Blue and counted in a Neubauer chamber. […] 200 μl are then pipetted as quadruple determination (per cup) into a 96-well plate (VWR, Article No. 4100636981), and the absorption at a wavelength of 405 nm is determined. […] The content of melanin can be determined in this way by means of a calibration line.
The other values were determined relative to the blank sample with dimethyl sulfoxide (DMSO) and a-MSH, whose measurement was set at 100%

The subject of experiment [4] is explants from the stomach tissue of a pale-skinned person (type). The experiment in a line: Ex-vivo study: chromametric colour measurement of skin explants. On the set-up: species or system human; key to b / a: CIE L*a*b* colour coordinates, Minolta CR-300 chromameter, D65. Here is the method:
12 explants from the stomach tissue of a pale-skinned person (type) having an average diameter of 10 mm are prepared (reference: P831-AB49).
The explants are kept in a BEM medium (B10-EC's explants medium) at 37° C. in a moist atmosphere comprising 5% of CO2.
The following samples are tested: (in each case 3 explants), where the solutions of the corresponding substances used comprise 90% of water and 10% of ethanol.
Glucuronolactone is employed in the bicyclic form.
2 μl of the respective sample are added to the explants and distributed for the first time (D0), 1 day later (D1), 2 days later (D2), 3 days later (D3) and 4 days later (D4). The colour of the explants is determined chromametrically. The measurements are carried out on addition (D0), on day 1 (D1), on day 5 (D5) and on day 11 (D11).
The colour measurements are carried out using a Minolta CR-300 Chroma-meter, and the L, a and b values are read off correspondingly on the instrument.
The following parameters are set:
A colour area is present here which is viewed at a viewing angle of 2 degrees. This viewing angle is used as standard in the chromametric measurement. • Irradiation source D65, corresponding to daylight • Region of the measurement: 3 mm • Parameters used: L*a*b*
The sample is placed on the bearing rail with the epidermis facing downwards. The irradiation is carried out from the underside through the area indicated (3 mm).
In the colorimetric determinations <<L a b>>, the L value determines the contrast of the skin. If the L value drops, the skin appears darker.
Δa after one day is calculated as follows: […]

[5] abbreviates: D0 (on addition), single explants, n=3, listed as P2.
Where [6] appears, read: D1, single explants, n=3, listed as P2.
Where [7] appears, read: D5, single explants, n=3, listed as P2.
Where [8] appears, read: D11, single explants, n=3, listed as P2.

Values joined by “and” are separate entries in the source; they are usually repeats but may differ in a detail not shown here. Equal values may be shown once.

As to `O=C(CO)CO` [DHA, 1,3-dihydroxyacetone], in experiment [1] (after 6 hours), the L is 86.1, the a came to 13.4 and the b turned out to be 39.9. In experiment [1] (after 24 hours), this molecule showed an L of 61.3, an a of 31.7 and a b of 75.0. In experiment [1] (after one hour), this molecule returned an L of 99.4, an a of 0.4 and a b of 1.3.

Consider `O=C[C@H](O)[C@H]1OC(=O)[C@@H](O)[C@H]1O` [Glucuronolactone], for which the Δa in experiment [2] was 0.25 and 0.22 and 0.26. Further, the Melanin concentration % in experiment [3] (10 mM + α-MSH (10^−8 M)) is on record as 46.9%; in experiment [3] (10 mM, without α-MSH), 56.7%. Besides, in experiment [3] (cell culture tests with B16V mouse melanoma cells), the “melanin production” value was “reduce melanin production”. Further, the L in experiment [4] (setting [5]) is 64.07 and 62.49 and 62.34; in experiment [4] (setting [6]), 65.12 and 64.59 and 62.71; in experiment [4] (setting [7]) it was 62.73 and 63.62 and 63.56; in experiment [4] (setting [8]) it was 64.22 and 65.7 and 62.69. Moreover, the b in experiment [4] (setting [5]) was 17.1 and 17.34 and 16.15; in experiment [4] (setting [6]), 17.81 and 17.14 and 16.29; in experiment [4] (setting [7]), 16.51 and 16.88 and 15.95; in experiment [4] (setting [8]), 14.34 and 15.04 and 15.57. The a in experiment [4] (setting [8]) was 1.87 and 2.44 and 2.65. In addition, the “skin colour in comparison with the untreated sample” value in experiment [4] (explants, glucuronolactone 1%) is given as “darkening of the skin”.
